# Test results as given in patent US10662171B2, “Antidiabetic bicyclic compounds” (Merck Sharp & Dohme Corp., priority 2014, dated 2020).
# Molecular target: T1, human GPR40 (Homo sapiens, UniProt O14842)
# T1 construct: expressed in transfected cells; host or cells: HEK cells stably expressing the aequorin reporter
# Experiment: Inositol Phosphate Turnover (IP1) Assay 1
# Type: cell-based
# Details: HEK cells stably expressing human GPR40; compound transferred via pocket tip; 60 minutes at 37 degrees
# Procedure: (§1) Human and mouse GPR40 stable cell-lines were generated in CHO cells stably expressing NFAT BLA (Beta-lactamase). A human GPR40 stable cell-line was generated in HEK cells stably expressing the aequorin expressing reporter. The expression plasmids were transfected using lipofectamine (Life Technologies) following manufacturer's instructions. Stable cell-lines were generated following drug selection.
# (§2) The assay is performed in 384-well format. HEK cells stably expressing human GPR40 are plated at 15,000 cells per well in growth medium (DMEM/10% fetal calf serum). Cell plates are then incubated 16 hours at 37 degrees in a 5% CO2 incubator.
# Measurement of Inositol Phosphate Turnover (IP1) is performed using the CisBio IP-One kit (Part number 62IPAPEB). After the 16 hour incubation, the cells are washed with HEPES buffer and 10 ul of stimulation buffer (prepared as described in the kit) is added to each well. In a separate plate, compounds are diluted in DMSO (400-fold over the final concentration in the assay well) and 25 nl is transferred via pocket tip to the appropriate well in the assay cell plate. The plates are then incubated for 60 minutes at 37 degrees. 10 ul of detection buffer (also prepared as described in the IP-One kit) is added to each well and the plates are incubated for 60 minutes in the dark. The plates are then read in a Perkin Elmer EnVision or equivalent reader able to measure FRET. Fluorescent ratio of emission at 665 and 620 nm is then converted to IP1 concentration by back calculating from an IP1 standard curve prepared at the time of the assay.
# T1 sequence (O14842 whole entry): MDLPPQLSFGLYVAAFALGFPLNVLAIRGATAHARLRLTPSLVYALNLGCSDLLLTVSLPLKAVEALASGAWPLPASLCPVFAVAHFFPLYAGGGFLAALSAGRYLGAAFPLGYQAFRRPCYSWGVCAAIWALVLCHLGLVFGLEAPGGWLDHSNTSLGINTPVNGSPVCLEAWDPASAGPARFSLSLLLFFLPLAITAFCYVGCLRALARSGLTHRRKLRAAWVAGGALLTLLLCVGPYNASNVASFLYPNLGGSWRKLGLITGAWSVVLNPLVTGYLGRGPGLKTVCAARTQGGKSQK
row,EC50,Compound
1,330 nM,"COc1ccc(F)c(-c2ccc(C3COc4ccc(C(CC(=O)O)C5CC5)cc4C3)cc2)c1 (single isomer, unassigned) [Example 3]"
2,75 nM,"COc1ccc(F)c(-c2ccc(C3COc4ccc(C(CC(=O)O)C5CC5)cc4C3)cc2)c1 (single isomer, unassigned) [Example 4]"
3,5.6 nM,"COc1ccc(F)c(-c2ccc(C3COc4ccc([C@H](C5CC5)[C@H](C)C(=O)O)cc4C3)cc2)c1 (single isomer, unassigned) [Example 6]"
4,6.3 nM,"COc1cc(-c2ccc(C3COc4ccc([C@H](C5CC5)[C@H](C)C(=O)O)cc4C3)cc2)c(F)cn1 (single isomer, unassigned) [Example 11]"
5,5380 nM,"COc1ccc(F)c(-c2ccc(C3Cc4cc(C(CC(=O)O)C5CC5)ccc4CO3)cc2)c1 (mixture of isomers) [Example 20, 3-cyclopropyl-3-(3-(2′-fluoro-5′-methoxy-[1,1′-biphenyl]-4-yl)isochroman-6-yl)propanoic acid]"
6,729 nM,"C[C@H](C(=O)O)[C@H](c1ccc2c(c1)CC(C1CCN(Cc3cc(C(F)(F)F)ccc3C(F)(F)F)CC1)CO2)C1CC1 (stereo partly drawn) [Example 25, Sodium (2S,3R)-3-(3-(1-(2,5-bis(trifluoromethyl)benzyl)piperidin-4-yl)chroman-6-yl)-3-cyclopropyl-2-methylpropanoate]"
7,169 nM,"COc1ccc(F)c(-c2ccc(C3COc4ccc([C@@H](C5CC5)[C@@H](C)C(=O)O)cc4C3)cc2)c1 (single isomer, unassigned) [Example 8]"
8,26 nM,"COc1cc(-c2ccc(C3COc4ccc([C@H](C5CC5)[C@H](C)C(=O)O)cc4C3)cc2)ccn1 (single isomer, unassigned) [Example 15]"
9,6.9 nM,"COc1ccc(F)c(-c2ccc(C3CSc4ccc([C@H](C5CC5)[C@H](C)C(=O)O)cc4C3)cc2)c1 (stereo partly drawn) [Example 27, (2S,3R)-3-cyclopropyl-3-(3-(2′-fluoro-5′-methoxy-[1,1′-biphenyl]-4-yl)thiochroman-6-yl)-2-methylpropanoic acid]"
10,60 nM,"COc1ccc(F)c(-c2ccc(C3COc4ccc([C@@H](C5CC5)[C@@H](C)C(=O)O)cc4C3)cc2)c1 (single isomer, unassigned) [Example 9]"
11,155 nM,"COc1ccc(F)c(-c2ccc(C3COc4ccc(C(CC(=O)O)C5CC5)cc4C3)cc2)c1 (centres unmarked) [Example 1, 3-cyclopropyl-3-(3-(2′-fluoro-5′-methoxy-[1,1′-biphenyl]-4-yl)chroman-6-yl)propanoic acid]"
12,69 nM,"COc1ccc(F)c(-c2ccc(C3Cc4cc([C@H](C5CC5)[C@H](C)C(=O)O)ccc4S(=O)(=O)C3)cc2)c1 (stereo partly drawn) [Example 28, (2S,3R)-3-Cyclopropyl-3-(3-(2′-fluoro-5′-methoxy-[1,1′-biphenyl]-4-yl)-1,1-dioxidothiochroman-6-yl)-2-methylpropanoic acid]"
13,592 nM,Cc1cccc(C)c1-c1ccc(C2COc3ccc([C@H](C4CC4)[C@H](C)C(=O)O)cc3C2)cc1 (some centres unmarked) [Example 13]
14,12 nM,COc1cc(-c2ccc(C3COc4ccc([C@H](C5CC5)[C@H](C)C(=O)O)cc4C3)cc2)ccn1 (some centres unmarked) [Example 12]
15,250 nM,"C[C@H](C(=O)O)[C@H](c1ccc2c(c1)CC(c1ccc(-c3cccc(OC4CC4)c3)cc1)CO2)C1CC1 (stereo partly drawn) [Example 19, (2S,3R)-3-(3-(3′-cyclopropoxy-[1,1′-biphenyl]-4-yl)chroman-6-yl)-3-cyclopropyl-2-methylpropanoic acid]"
16,424 nM,"COc1ccc(F)c(-c2ccc([C@@H]3Cc4cc([C@H](C5CC5)[C@H](C)C(=O)O)ccc4C(=O)O3)cc2)c1 [Example 23, (2S,3R)-3-cyclopropyl-3-((S)-3-(2′-fluoro-5′-methoxy-[1,1′-biphenyl]-4-yl)-1-oxoisochroman-6-yl)-2-methylpropanoic acid]"
17,32 nM,COc1cc(-c2ccc(C3COc4ccc([C@H](C5CC5)[C@H](C)C(=O)O)cc4C3)c(F)c2)ccn1 (some centres unmarked) [Example 14]
18,3 nM,"COc1ccc(F)c(-c2ccc(C3COc4ccc([C@H](C5CC5)[C@H](C)C(=O)O)cc4C3)cc2)c1 (single isomer, unassigned) [Example 7]"
19,13 nM,"COc1cc(-c2ccc(C3COc4ccc([C@H](C5CC5)[C@H](C)C(=O)O)cc4C3)cc2)c(F)cn1 (single isomer, unassigned) [Example 10]"
20,166 nM,"COc1ccc(F)c(-c2ccc(C3Cc4cc([C@H](C5CC5)[C@H](C)C(=O)O)ccc4C(=O)O3)cc2)c1 (stereo in doubt) [Example 24, (2S,3R)-3-cyclopropyl-3-((S)-3-(2′-fluoro-5′-methoxy-[1,1′-biphenyl]-4-yl)-1-oxoisochroman-6-yl)-2-methylpropanoic acid]"
21,106 nM,"COc1ccc(F)c(-c2ccc(C3COc4ccc(C(CC(=O)O)C5CC5)cc4C3)cc2)c1 (single isomer, unassigned) [Example 5]"
22,12 nM,"COc1cc(-c2ccc(C3COc4ccc([C@H](C5CC5)[C@H](C)C(=O)O)cc4C3)cc2)ccn1 (single isomer, unassigned) [Example 16]"
23,24 nM,"COc1ccc(F)c(-c2ccc(C3CCc4ccc(C(C5CC5)C(C)C(=O)O)cc4C3)cc2)c1 (centres unmarked) [Example 26, 3-cyclopropyl-3-(7-(2′-fluoro-5′-methoxy-[1,1′-biphenyl]-4-yl)-5,6,7,8-tetrahydronaphthalen-2-yl)-2-methylpropanoic acid]"

# Molecular target: T1, human GPR40
# Experiment: Inositol Phosphate Turnover (IP1) Assay 2
# Type: cell-based
# Details: HEK cells stably expressing human GPR40; compound acoustically transferred; 60 minutes at 37 degrees
# Procedure: as §1, §2
# Measurement of Inositol Phosphate Turnover (IP1) is performed using the CisBio IP-One kit (Part number 62IPAPEB). After the 16 hour incubation, the cells are washed with HEPES buffer and 10 ul of stimulation buffer (prepared as described in the kit) is added to each well. In a separate plate, compounds are diluted in DMSO (400-fold over the final concentration in the assay well) and 25 nl is acoustically transferred to the appropriate well in the assay cell plate. The plates were then incubated for 60 minutes at 37 degrees. 10 ul of detection buffer (also prepared as described in the IP-One kit) is added to each well and the plates are incubated for 60 minutes in the dark. The plates are then read in a Perkin Elmer EnVision or equivalent reader able to measure FRET. Fluorescent ratio of emission at 665 and 620 nm is then converted to IP1 concentration by back calculating from an IP1 standard curve prepared at the time of the assay.
row,EC50,Compound
1,3.8 nM,"COc1cc(-c2ccc(C3=Cc4cc([C@@H](C5CC5)[C@@H](C)C(=O)O)ccc4CC3)c(F)c2)ccn1 (single isomer, unassigned) [Example 30]"
2,4.8 nM,"COc1cc(-c2ccc(C3CCc4ccc(C(C5CC5)C(C)C(=O)O)cc4C3)c(F)c2)ccn1 (single isomer, unassigned) [Example 36]"
3,0.5 nM,"COc1cc(-c2ccc(C3=Cc4cc([C@H](C5CC5)[C@H](C)C(=O)O)ccc4CC3)c(F)c2)ccn1 (single isomer, unassigned) [Example 31]"
4,4.2 nM,"COc1cc(-c2ccc([C@@H]3Cc4cc([C@H](C5CC5)[C@H](C)C(=O)O)ccc4CO3)c(F)c2)ccn1 [Example 38A, (2S,3R)-3-cyclopropyl-3-((S)-3-(2-fluoro-4-(2-methoxypyridin-4-yl)phenyl)isochroman-6-yl)-2-methylpropanoic acid]"
5,1.4 nM,"COc1cc(-c2ccc(C3CCc4ccc(C(C5CC5)C(C)C(=O)O)cc4C3)c(F)c2)ccn1 (single isomer, unassigned) [Example 33, 3-cyclopropyl-3-(7-(2-fluoro-4-(2-methoxypyridin-4-yl)phenyl)-5,6,7,8-tetrahydronaphthalen-2-yl)-2-methylpropanoic acid]"
6,0.21 nM,"COc1ccc(F)c(-c2ccc([C@@H]3Cc4cc([C@H](C5CC5)[C@H](C)C(=O)O)ccc4CO3)cc2)c1 [Example 21, (2S,3R)-3-cyclopropyl-3-((S)-3-(2′-fluoro-5′-methoxy-[1,1′-biphenyl]-4-yl)isochroman-6-yl)-2-methylpropanoic acid]"
7,24.5 nM,"COc1cc(-c2ccc([C@H]3Cc4cc([C@H](C5CC5)[C@H](C)C(=O)O)ccc4CO3)c(F)c2)ccn1 [Example 38B, (2S,3R)-3-cyclopropyl-3-((R)-3-(2-fluoro-4-(2-methoxy-pyridin-4-yl)phenyl)isochroman-6-yl)-2-methylpropanoic acid]"
8,5.2 nM,"COc1cc(-c2ccc(C3Cc4cc([C@H](C5CC5)[C@H](C)C(=O)O)ccc4CO3)cc2)c(F)cn1 (single isomer, unassigned) [Example 39B]"
9,3960 nM,"COc1cc(-c2ccc(C3=Cc4cc([C@@H](C5CC5)[C@H](C)C(=O)O)ccc4CC3)c(F)c2)ccn1 (single isomer, unassigned) [Example 29]"
10,28 nM,"COc1cc(-c2ccc(C3=Cc4cc([C@H](C5CC5)[C@@H](C)C(=O)O)ccc4CC3)c(F)c2)ccn1 (single isomer, unassigned) [Example 32]"
11,13 nM,"COc1cc(-c2ccc(C3CCc4ccc(C(C5CC5)C(C)C(=O)O)cc4C3)c(F)c2)ccn1 (single isomer, unassigned) [Example 34]"
12,257 nM,"COc1cc(-c2ccc(C3CCc4ccc(C(C5CC5)C(C)C(=O)O)cc4C3)c(F)c2)ccn1 (single isomer, unassigned) [Example 35]"
